Legend:
[1] = tested on: FeCl3-Induced Middle Cerebral Artery Thrombosis (MCAT) Rats; assay: Cerebral infarct size (TTC staining) in FeCl3-induced middle cerebral artery thrombosis rats; type: in vivo, rat; settings: for cerebral infarct size percentage to affected side / cerebral infarct size percentage to total brain: x ± s; for effect on cerebral infarct size (in words): 20 mg/kg and 40 mg/kg, 7 days
Description: (§1) Tamura and Liu's methods were used with modifications to prepare the model. Rats were anesthetized by intraperitoneal injection of 10% chloral hydrate (0.35 g/kg); and fixed with right arm reclining. An arc incision of about 1.5 cm in length was made at the midpoint between the link of paropia and external auditory canal and temporalis was removed to expose the temporal bone. […] The surrounding-tissues were protected with a piece of plastic film. A small piece of quantitative filter paper, which had absorbed 10 μL of a 50% ferric chloride solution, was applied on this segment of middle cerebral artery. The filter paper was removed after 30 min, and local tissues were rinsed with normal saline solution, followed by suture layer by layer. Then the experimental rats were put back to rearing cage. The temperature was controlled at 24° C. For the sham-operation group, the operation procedures were the same as the model group except for the application of the ferric chloride solution.
After behavior assessment, the animals were decapitated to remove the brains. The olfactory bulb, cerebellum and lower brain stem were removed, and the remaining part was cut into 5 coronal sections below 4° C. The sections were immediately placed into a TTC staining solution (containing 1.5 m 4% TTC, 0.1 ml 1M K2HPO4 and water (balance) per 5 ml staining solution), followed by incubation in dark at 37° C. for 30 min. Then, the sections were transferred into a solution of 10% formaldehyde and incubated in dark for 24 h. After staining, the non-ischemic areas were rose red, and the infracted areas were white. The white tissues were carefully collected and weighed. The extent of cerebral infarction was expressed as a percentage (%) of infracted tissue to the weight of total brain and also to the affected side of brain.

[2] = tested on: FeCl3-Induced Middle Cerebral Artery Thrombosis (MCAT) Rats; assay: Neurological symptom score in middle cerebral artery thrombosis rats; type: in vivo, rat; settings: for effect on neurological symptoms (in words): 20 mg/kg and 40 mg/kg, 7 days; for neurological symptomatic score 6 h: 6 h after operation; for neurological symptomatic score 6 h / neurological symptomatic score 24 h: full score 4; for neurological symptomatic score 24 h: 24 h after operation
Description: as §1
The experimental animals were tested for behaviors 6 h and 24 h after operation according to the Sederson's method with modifications. Criteria: (1) The tail of the rat was lifted to observe the flexibility of the forelimb, with both forelimbs symmetrically stretching forward scored as 0, and occurrence of any or all of shoulder inflexion, elbow inflexion, shoulder intorsion in the contralateral fore-limb opposite to the operation side scored as 1. (2) The animal was placed on a plane, and its shoulders were pushed to the opposite direction to check resistance, Equivalency and strong resistance in both sides was scored as 0, and reduction in resistance in the contralateral side was scored as 1. (3) Both forelimbs of the rat were placed on wire gauze to observe the muscular tension. […] According to the criteria above, the full score is 4, and the higher the score is, the more serious the behavior disorder of the animal is.

[3] = tested on: Middle Cerebral Artery Thrombosis (MCAT) Rats; assay: Water content in brain tissues in middle cerebral artery thrombosis rats; type: in vivo, rat; settings: for Water content of affected hemisphere / Water content of unaffected hemisphere: 24 h after operation
[4] = tested on: acute blood stagnation model rats; assay: Whole blood and plasma viscosities in acute blood stagnation model rats; type: in vivo, rat; settings: for effect on whole blood and plasma viscosities (in words): 10 mg/kg, 20 mg/kg and 40 mg/kg, high, middle and low shear rates
Description: MAO Teng-min's methods were modified to prepare the model.

[5] = tested on: acute blood stagnation model rats; assay: Erythrocyte aggregation and deformability in acute blood stagnation model rats; type: in vivo, rat; settings: for effect on erythrocyte aggregation index (in words) / effect on erythrocyte deformability (in words): vs. model group; for Erythrocyte aggregation SS / Erythrocyte deformability SSS: area under curve; for Erythrocyte aggregation MAXD: maximal erythrocyte aggregation index; for Erythrocyte deformability MAXDI: maximal erythrocyte deformation index
Description: MAO Teng-min's methods were modified to prepare the model. Rats were subcutaneously injected with 0.8 mg/kg adrenaline twice at 1 h and 5 h after administration on the fifth day, and were placed into ice-water at 4° C. for 5 min at 2 h after the first injection of adrenaline.
To 40 μl of heparinized blood, 1 ml of deforming solution was added and mixed thoroughly. A sample of 0.8 ml was tested in an erythrocyte aggregation/deformability tester, and erythrocyte deformability was expressed as maximal erythrocyte deformation index and area under curve (SSS). Another 0.8 ml of anticoagulated blood was tested in an erythrocyte aggregation/deformability tester, and erythrocyte aggregation was expressed as maximal erythrocyte aggregation index (MAXD) and area under curve ([…]).

[6] = Fenton reaction system; paramagnetic method; cited from earlier work
[7] = tested on: streptozocin-induced diabetic mouse; settings: cited from earlier work
[8] = tested on: platelet aggregation; settings: cited from earlier work
[9] = tested on: IL-1β; assay: ELISA of IL-1β in brain tissue of cerebral ischemia-reperfusion rats; settings: brain homogenate
[10] = tested on: TNF-α; assay: ELISA of TNF-α in brain tissue of cerebral ischemia-reperfusion rats; settings: brain homogenate
[11] = tested on: IL-10; assay: ELISA of IL-10 in brain tissue of cerebral ischemia-reperfusion rats; settings: brain homogenate
[12] = tested on: TGF-β; assay: ELISA of TGF-β in brain tissue of cerebral ischemia-reperfusion rats; settings: brain homogenate
[13] = tested on: cerebral ischemia-reperfusion model rats; assay: Inflammatory factors in brain tissues in cerebral ischemia-reperfusion rats (overall statement); settings: 40 mg/kg
[14] = vs. model group P<0.05, P<0.01, listed as timosaponin BIT
[15] = 40 mg/kg, listed as timosaponin BII, 40 mg/kg

With `C[C@@H](CCC1(O)O[C@H]2C[C@H]3[C@@H]4CC[C@@H]5C[C@@H](O[C@@H]6O[C@H](CO)[C@H](O)[C@H](O)[C@H]6O[C@@H]6O[C@H](CO)[C@@H](O)[C@H](O)[C@H]6O)CC[C@]5(C)[C@H]4CC[C@]3(C)[C@H]2[C@@H]1C)CO[C@@H]1O[C@H](CO)[C@@H](O)[C@H](O)[C@H]1O` (stereo partly drawn) [Timosaponin BII, (25S)-26-O-β-D-glucopyranosyl-22-hydroxy-5β-furostane-3β,26-diol-3-O-β-D-glucopyranosyl(1→2)-β-D-galactopyranoside] the “cerebral infarct size percentage to affected side” value ([1]; 10 mg/kg by gavage 7 days) was 6.35 ± 3.39%, the “cerebral infarct size percentage to total brain” value ([1]; 10 mg/kg by gavage 7 days) was 3.27 ± 1.74% and the “effect on cerebral infarct size (in words)” value ([1]; vs. model group P<0.05, P<0.01) was “significantly reduced the cerebral infarct size”. The “effect on cerebral infarct size (in words)” value [1, 14] was “significantly reduce the cerebral infarct size”, the “cerebral infarct size percentage to affected side” value ([1]; 20 mg/kg by gavage 7 days) was 5.37 ± 2.20 % and the “cerebral infarct size percentage to total brain” value ([1]; 20 mg/kg by gavage 7 days) was 2.92 ± 1.20 %. The “cerebral infarct size percentage to affected side” value ([1]; 40 mg/kg by gavage 7 days) was 3.88 ± 2.38 %, the “cerebral infarct size percentage to total brain” value ([1]; 40 mg/kg by gavage 7 days) was 1.99 ± 1.20 % and the “effect on neurological symptoms (in words)” value ([2]; vs. model group P<0.05, P<0.01) was “ameliorate neurological symptoms”. The “effect on neurological symptoms (in words)” value [2, 14] was “significantly lower the neurological symptom score”, the “neurological symptomatic score 6 h” value ([2]; 10 mg/kg by gavage 7 days) was 2.08 ± 0.67 and the “neurological symptomatic score 6 h” value ([2]; 20 mg/kg by gavage 7 days) was 1.82 ± 0.75. The “neurological symptomatic score 6 h” value ([2]; 40 mg/kg by gavage 7 days) was 1.50 ± 0.71, the “neurological symptomatic score 24 h” value ([2]; 10 mg/kg by gavage 7 days) was 2.08 ± 0.79 and the “neurological symptomatic score 24 h” value ([2]; 20 mg/kg by gavage 7 days) was 2.00 ± 0.45. The “neurological symptomatic score 24 h” value ([2]; 40 mg/kg by gavage 7 days) was 1.90 ± 0.74, the “effect on water content of brain / cerebral edema (in words)” value ([3]; 40 mg/kg, vs. model group P<0.05, 40 mg/kg) was “significantly lowered the water content in the affected hemisphere” and the “effect on water content of brain / cerebral edema (in words)” value ([3]; 40 mg/kg, vs. model group P<0.05, listed as timosaponin BIT, 40 mg/kg) was “significantly reduce the water content of brain”. The “Water content of affected hemisphere” value ([3]; 10 mg/kg) was 80.52 ± 0.69%, the “Water content of unaffected hemisphere” value ([3]; 10 mg/kg) was 79.51 ± 0.57% and the “Water content of affected hemisphere” value ([3]; 20 mg/kg) was 80.46 ± 0.79%. For the same compound, the “Water content of unaffected hemisphere” value ([3]; 20 mg/kg) was 79.41 ± 0.38%, the “Water content of affected hemisphere” value ([3]; 40 mg/kg) was 80.15 ± 0.99 % and the “Water content of unaffected hemisphere” value ([3]; 40 mg/kg) was 79.47 ± 0.44%. For the same compound, the “Plasma viscosity (100 S^−1)” value ([4]; 10 mg/kg by gavage 5 days) was 1.40 ± 0.10, the “Whole blood viscosity 1 S^−1” value ([4]; 10 mg/kg by gavage 5 days) was 27.03 ± 4.64 and the “Whole blood viscosity 5 S^−1” value ([4]; 10 mg/kg by gavage 5 days) was 11.02 ± 1.38. For the same compound, the “Whole blood viscosity 30 S^−1” value ([4]; 10 mg/kg by gavage 5 days) was 6.10 ± 0.85, the “Whole blood viscosity 200 S^−1” value ([4]; 10 mg/kg by gavage 5 days) was 4.45 ± 0.71 and the “effect on whole blood and plasma viscosities (in words)” value ([4]; P<0.05, P<0.01) was “significantly lowered whole blood and plasma viscosities”. For the same compound, the “effect on whole blood and plasma viscosities (in words)” value ([4]; P<0.05, P<0.01, listed as timosaponin BII) was “significantly reduce the whole blood and plasma viscosities”, the “Plasma viscosity (100 S^−1)” value ([4]; 20 mg/kg by gavage 5 days) was 1.36 ± 0.10 and the “Whole blood viscosity 1 S^−1” value ([4]; 20 mg/kg by gavage 5 days) was 33.13 ± 5.70. For the same compound, the “Whole blood viscosity 5 S^−1” value ([4]; 20 mg/kg by gavage 5 days) was 12.91 ± 1.82, the “Whole blood viscosity 30 S^−1” value ([4]; 20 mg/kg by gavage 5 days) was 6.55 ± 0.93 and the “Whole blood viscosity 200 S^−1” value ([4]; 20 mg/kg by gavage 5 days) was 4.49 ± 0.70. For the same compound, the “Plasma viscosity (100 S^−1)” value ([4]; 40 mg/kg by gavage 5 days) was 1.38 ± 0.12, the “Whole blood viscosity 1 S^−1” value ([4]; 40 mg/kg by gavage 5 days) was 31.21 ± 4.29 and the “Whole blood viscosity 5 S^−1” value ([4]; 40 mg/kg by gavage 5 days) was 12.46 ± 1.33. For the same compound, the “Whole blood viscosity 30 S^−1” value ([4]; 40 mg/kg by gavage 5 days) was 6.45 ± 0.60, the “Whole blood viscosity 200 S^−1” value ([4]; 40 mg/kg by gavage 5 days) was 4.42 ± 0.38 and the “effect on erythrocyte aggregation index (in words)” value ([5]; 40 mg/kg, 40 mg/kg) was “reduce the erythrocyte agglutination index”. The “effect on erythrocyte deformability (in words)” value ([5]; 40 mg/kg, 40 mg/kg) was “significantly improve the deformation ability of erythrocytes”, the “effect on erythrocyte aggregation index (in words)” value [5, 15] was “decrease in erythrocyte aggregation index” and the “effect on erythrocyte deformability (in words)” value [5, 15] was “significant increase in erythrocyte deformability index”. The “Erythrocyte aggregation SS” value ([5]; 10 mg/kg) was 186.67 ± 28.85, the “Erythrocyte deformability SSS” value ([5]; 10 mg/kg) was 363.88 ± 19.58 and the “Erythrocyte aggregation SS” value ([5]; 20 mg/kg) was 163.04 ± 50.23. For the same compound, the “Erythrocyte deformability SSS” value ([5]; 20 mg/kg) was 363.97 ± 27.87, the “Erythrocyte aggregation SS” value ([5]; 40 mg/kg) was 152.78 ± 28.11 and the “Erythrocyte deformability SSS” value ([5]; 40 mg/kg) was 374.26 ± 15.82. The “Erythrocyte aggregation MAXD” value ([5]; 10 mg/kg) was 0.94 ± 0.14, the “Erythrocyte aggregation MAXD” value ([5]; 20 mg/kg) was 0.81 ± 0.26 and the “Erythrocyte aggregation MAXD” value ([5]; 40 mg/kg) was 0.76 ± 0.14. The “Erythrocyte deformability MAXDI” value ([5]; 10 mg/kg) was 0.72 ± 0.05, the “Erythrocyte deformability MAXDI” value ([5]; 20 mg/kg) was 0.71 ± 0.05 and the “Erythrocyte deformability MAXDI” value ([5]; 40 mg/kg) was 0.73 ± 0.03. For the same compound, the free radicals cleared [6] was 57%, the “blood sugar level (in words)” value [7] was “can lower blood sugar level” and the “clotting time (in words)” value [8] was “prolonging clotting time”. For the same compound, the “platelet aggregation (in words)” value [8] was “obviously inhibiting platelet aggregation”, the IL-1β ([9]; 10 mg/kg by gavage 5 days) was 9.70 ± 0.30 pg/mL and the IL-1β ([9]; 40 mg/kg by gavage 5 days) was 7.98 ± 0.80 pg/mL. The TNFα ([10]; 10 mg/kg by gavage 5 days) was 8.44 ± 0.62 pg/mL, the TNFα ([10]; 40 mg/kg by gavage 5 days) was 7.65 ± 0.61 pg/mL and the IL-10 ([11]; 10 mg/kg by gavage 5 days) was 14.49 ± 11.78 pg/mL. For the same compound, the IL-10 ([11]; 40 mg/kg by gavage 5 days) was 11.19 ± 5.16 pg/mL, the TGF-β ([12]; 10 mg/kg by gavage 5 days) was 12.70 ± 3.57 pg/mL and the TGF-β ([12]; 40 mg/kg by gavage 5 days) was 10.30 ± 3.79 pg/mL. The “effect on levels of inflammatory factors IL-1β, TNF-α, IL-10, TGF-β (in words)” value [13] was “significantly reduced the levels of these inflammatory factors”.
With Hydergine [reference compound] the “cerebral infarct size percentage to affected side” value ([1]; 0.6 mg/kg by gavage 7 days) was 3.75 ± 1.38 %, the “cerebral infarct size percentage to total brain” value ([1]; 0.6 mg/kg by gavage 7 days) was 1.98 ± 0.72 % and the “neurological symptomatic score 6 h” value ([2]; 0.6 mg/kg by gavage 7 days) was 1.91 ± 0.83. The “neurological symptomatic score 24 h” value ([2]; 0.6 mg/kg by gavage 7 days) was 1.55 ± 0.69.
